# Reference: PubChem BioAssay (NCI)
#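 All cell lines were grown in 96-well plates and treated with compound for 48 hours. Here, GI50 denotes the concentration required for 50% inhibition of growth. TGI: concentration producing complete growth inhibition.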
# Assays:
# Assay in all cases: inhibition of tumour cell growth, NCI panel, 48 h
# SNB-19 CNS = tested on: SNB-19 CNS
# UACC-62 melanoma = tested on: UACC-62 melanoma
# LOX IMVI melanoma = tested on: LOX IMVI melanoma
# 786-0 renal = tested on: 786-0 renal
# UO-31 renal = tested on: UO-31 renal
# T-47D breast = tested on: T-47D breast
# HOP-92 NSCLC = tested on: HOP-92 NSCLC
# OVCAR-3 ovarian = tested on: OVCAR-3 ovarian
# MALME-3M melanoma = tested on: MALME-3M melanoma
# HCT-15 colon = tested on: HCT-15 colon
Structure (SMILES),GI50 (SNB-19 CNS),TGI (SNB-19 CNS),GI50 (UACC-62 melanoma),TGI (UACC-62 melanoma),GI50 (LOX IMVI melanoma),TGI (LOX IMVI melanoma),GI50 (786-0 renal),TGI (786-0 renal),GI50 (UO-31 renal),TGI (UO-31 renal),GI50 (T-47D breast),TGI (T-47D breast),GI50 (HOP-92 NSCLC),TGI (HOP-92 NSCLC),GI50 (OVCAR-3 ovarian),TGI (OVCAR-3 ovarian),GI50 (MALME-3M melanoma),TGI (MALME-3M melanoma),GI50 (HCT-15 colon),TGI (HCT-15 colon)
O=c1oc2ccc(Br)cc2c(=O)n1-c1ccc(F)cc1F,2.3 µM,> 100 µM,1.01 µM,4.51 µM,2.79 µM,12.4 µM,3.23 µM,11.6 µM,1.28 µM,5.93 µM,1.77 µM,6.94 µM,0.425 µM,4.74 µM,2.41 µM,11.4 µM,1.59 µM,5.87 µM,3.04 µM,12.8 µM
O=[N+]([O-])c1ccc(CSCc2ccc(Cl)cc2)cc1,–,> 100 µM,–,> 100 µM,–,> 100 µM,–,> 100 µM,–,> 100 µM,–,> 100 µM,–,> 100 µM,–,> 100 µM,–,> 100 µM,–,> 100 µM
Cn1cc(-c2ccc(-c3cncc(Cl)c3N3CCC4(CCNC4=O)CC3)cc2)cn1,> 100 µM,> 100 µM,60.7 µM,> 100 µM,77.1 µM,> 100 µM,14.6 µM,> 100 µM,29 µM,> 100 µM,25.9 µM,> 100 µM,> 100 µM,> 100 µM,34.3 µM,> 100 µM,66.6 µM,> 100 µM,40.1 µM,> 100 µM
O=C(CSC(c1ccccc1)c1ccccc1)N/N=C/c1ccco1,36 µM,> 100 µM,2.52 µM,16.2 µM,1.48 µM,5.2 µM,1.83 µM,9.05 µM,2.03 µM,10.3 µM,28.3 µM,> 100 µM,1.44 µM,2.97 µM,1.92 µM,3.49 µM,1.53 µM,2.94 µM,2.12 µM,4.38 µM
O=C(N/N=C/c1c(Cl)cccc1Cl)c1ccc(C(F)(F)F)nc1Nc1cccc(C(F)(F)F)c1,1.55 µM,> 100 µM,1.39 µM,4.12 µM,0.677 µM,11.5 µM,0.856 µM,3.25 µM,1.49 µM,5.82 µM,0.971 µM,11.8 µM,0.293 µM,3 µM,0.284 µM,6.47 µM,2.17 µM,9.23 µM,0.437 µM,> 100 µM
COCOc1ccc(C2(O)Oc3cc(OCOC)ccc3C2C)c(O)c1 (stereo not given),–,29.4 µM,–,25.5 µM,–,34.6 µM,–,31.6 µM,–,23.8 µM,–,25.8 µM,–,30.5 µM,–,26.2 µM,–,28.7 µM,–,22.3 µM
Cn1c(=O)c2c(ncn2CC(=O)Nc2ccc(-c3ccccc3)nn2)n(C)c1=O,> 100 µM,> 100 µM,84.7 µM,> 100 µM,> 100 µM,> 100 µM,> 100 µM,> 100 µM,> 100 µM,> 100 µM,75.6 µM,> 100 µM,> 100 µM,> 100 µM,> 100 µM,> 100 µM,> 100 µM,> 100 µM,> 100 µM,> 100 µM
Cc1cc(C)n(-c2nnc3n2N=C(c2ccc(-c4ccccc4)cc2)CS3)n1,3.98 µM,> 100 µM,2.49 µM,6.98 µM,3.36 µM,> 100 µM,3.95 µM,> 100 µM,3.38 µM,> 100 µM,4.05 µM,> 100 µM,1.38 µM,5.13 µM,2.31 µM,5.55 µM,3.44 µM,17 µM,3.51 µM,> 100 µM
